How the values were obtained:
speedwell = experiment: Test C preemergence/postemergence greenhouse plant response rating 0 to 100; format: in vivo, Veronica persica; conditions: for Plant response rating Speedwell: 0 to 100 scale
Source text: The compounds evaluated in this test were formulated in a non-phytoxic solvent and applied to the soil surface before plant seedlings emerged (preemergence application), to water that covered the soil surface (flood application), and to plants that were in the one-to-four leaf stage (postemergence application). A sandy loam soil was used for the preemergence and postemergence tests, while a silt loam soil was used in the flood test. Water depth was approximately 2.5 cm for the flood test and was maintained at this level for the duration of the test. Plant species in the preemergence and postemergence tests consisted of barley (Hordeum vulgare), bedstraw (Galium aparine), blackgrass (Alopecurus myosuroides), chickweed (Stellaria media), corn (Zea mays), cotton (Gossypium hirsutum), crabgrass (Digitaria sanguinalis), downy brome (Bromus tectorum), giant foxtail (Setaria faberii), lambsquarters (Chenopodium album), morningglory (Ipomoea hederacea), pigweed ([…]), rape (Brassica napus), ryegrass (Lolium multiflorum), sorghum (Sorghum bicolor), soybean (Glycine max), speedwell (Veronica persica), sugar beet (Beta vulgaris), velvetleaf (Abutilon theophrasti), wheat (Triticum aestivum), wild buckwheat (Polygonum convolvulus), and wild oat (Avena fatua). All plant species were planted one day before application of the compound for the preemergence portion-of this test. Plantings of these species were adjusted to produce plants of appropriate size for the post-emergence portion of the test. […] All plant species were grown using normal greenhouse practices. Visual evaluations of injury expressed on treated plants, when compared to untreated controls, were recorded approximately fourteen to twenty one days after application of the test compound. […] A dash (-) response means no test result.

alfalfa = experiment: Test G preemergence/postemergence greenhouse plant response rating 0 to 100; format: in vivo, Medicago ativa; conditions: 0 to 100 scale
How it was run: (§1)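 Pre- and postemergence treatments used compound in non-phytotoxic solvent on potted greenhouse plants grown from seed, rhizome or plant part. Postemergence plants were at the 2–4 leaf stage; damage was assessed by eye versus untreated pots after 13–21 days.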

annual bluegrass = experiment: as above; format: in vivo, Poa annua; conditions: 0 to 100 scale
How it was run: as §1

bermudagrass = experiment: as above; format: in vivo, Cynodon dactylon; conditions: 0 to 100 scale
How it was run: as §1

broadleaf signalgrass = experiment: as above; format: in vivo, Brachiaria plantaginea; conditions: 0 to 100 scale
How it was run: as §1

common purslane = experiment: as above; format: in vivo, Portulaca oleracea; conditions: 0 to 100 scale
How it was run: as §1

common ragweed = experiment: as above; format: in vivo, Ambrosia elatior; conditions: 0 to 100 scale
How it was run: as §1

dallisgrass = experiment: as above; format: in vivo, Paspalum dilatatum; conditions: 0 to 100 scale
How it was run: as §1

goosegrass = experiment: as above; format: in vivo, Eleusine indica; conditions: 0 to 100 scale
How it was run: as §1

guineagrass = experiment: as above; format: in vivo, Panicum maximum; conditions: 0 to 100 scale
How it was run: as §1

itchgrass = experiment: as above; format: in vivo, Rottboellia exaltata; conditions: 0 to 100 scale
How it was run: as §1

johnsongrass = experiment: as above; format: in vivo, Sorghum halepense; conditions: 0 to 100 scale
How it was run: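 Scoring: visual injury at 13 to 21 days post-application, compared with untreated controls. Planting: one species per pot in greenhouse medium. Dosing: compound in non-phytotoxic solvent, within one day of sowing for preemergence or at 2–4 leaves for postemergence.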

large crabgrass = experiment: as above; format: in vivo, Digitaria sanguinalis; conditions: 0 to 100 scale
How it was run: as §1

pitted morningglory = experiment: as above; format: in vivo, Ipomoea lacunosa; conditions: 0 to 100 scale
How it was run: as §1

purple nutsedge = experiment: as above; format: in vivo, Cyperus rotundus; conditions: Rate 125 g/ha, 0 to 100 scale
How it was run: as §1

sandbur = experiment: as above; format: in vivo, Cenchrus echinatus; conditions: 0 to 100 scale
How it was run: as §1

smooth crabgrass = experiment: as above; format: in vivo, Digitaria ischaemum; conditions: 0 to 100 scale
How it was run: as §1

C#CCOc1cc(-c2nn3c(c2Br)CCCC3)c(F)cc1Cl [Compound 26]
Plant response rating Speedwell (speedwell; POSTEMERGENCE, 62 g/ha): 100
Plant response rating Speedwell (speedwell; POSTEMERGENCE, 250 g/ha): 100
Plant response rating (0 to 100), Speedwell (speedwell; POSTEMERGENCE, Rate 4 g/ha): 90
Plant response rating Speedwell (speedwell; PREEMERGENCE, 250 g/ha): 100
Plant response rating (0 to 100), Speedwell (speedwell; PREEMERGENCE, Rate 4 g/ha): 90
Plant response rating (0 to 100), Speedwell (speedwell; Rate 16 g/ha, POSTEMERGENCE): 100
Plant response rating (0 to 100), Speedwell (speedwell; Rate 16 g/ha, PREEMERGENCE): 100
Plant response rating, Alfalfa Var. (alfalfa; POSTEMERGENCE, Rate 125 g/ha): 20
Plant response rating, Alfalfa Var. (alfalfa; POSTEMERGENCE, Rate 250 g/ha): 50
Plant response rating, Alfalfa Var. (alfalfa; PREEMERGENCE, Rate 125 g/ha): 0
Plant response rating, Alfalfa Var. (alfalfa; PREEMERGENCE, Rate 250 g/ha): 60
Plant response rating, Ann Bluegrass (annual bluegrass; POSTEMERGENCE, Rate 125 g/ha): 0
Plant response rating, Ann Bluegrass (annual bluegrass; POSTEMERGENCE, Rate 250 g/ha): 0
Plant response rating, Ann Bluegrass (annual bluegrass; PREEMERGENCE, Rate 125 g/ha): 0
Plant response rating, Ann Bluegrass (annual bluegrass; PREEMERGENCE, Rate 250 g/ha): 0
Plant response rating, Bermudagrass (bermudagrass; POSTEMERGENCE, Rate 125 g/ha): 0
Plant response rating, Bermudagrass (bermudagrass; POSTEMERGENCE, Rate 250 g/ha): 0
Plant response rating, Bermudagrass (bermudagrass; PREEMERGENCE, Rate 125 g/ha): 0
Plant response rating, Bermudagrass (bermudagrass; PREEMERGENCE, Rate 250 g/ha): 0
Plant response rating, Brdlf Sgnlgrass (broadleaf signalgrass; POSTEMERGENCE, Rate 125 g/ha): 0
Plant response rating, Brdlf Sgnlgrass (broadleaf signalgrass; POSTEMERGENCE, Rate 250 g/ha): 0
Plant response rating, Brdlf Sgnlgrass (broadleaf signalgrass; PREEMERGENCE, Rate 125 g/ha): 0
Plant response rating, Brdlf Sgnlgrass (broadleaf signalgrass; PREEMERGENCE, Rate 250 g/ha): 0
Plant response rating, Cmn Purslane (common purslane; POSTEMERGENCE, Rate 125 g/ha): 100
Plant response rating, Cmn Purslane (common purslane; POSTEMERGENCE, Rate 250 g/ha): 90
Plant response rating, Cmn Purslane (common purslane; PREEMERGENCE, Rate 125 g/ha): 30
Plant response rating, Cmn Purslane (common purslane; PREEMERGENCE, Rate 250 g/ha): 100
Plant response rating, Cmn Ragweed (common ragweed; POSTEMERGENCE, Rate 125 g/ha): 80
Plant response rating, Cmn Ragweed (common ragweed; POSTEMERGENCE, Rate 250 g/ha): 100
Plant response rating, Cmn Ragweed (common ragweed; PREEMERGENCE, Rate 125 g/ha): 0
Plant response rating, Cmn Ragweed (common ragweed; PREEMERGENCE, Rate 250 g/ha): 20
Plant response rating, Dallisgrass (dallisgrass; POSTEMERGENCE, Rate 125 g/ha): 0
Plant response rating, Dallisgrass (dallisgrass; POSTEMERGENCE, Rate 250 g/ha): 0
Plant response rating, Dallisgrass (dallisgrass; PREEMERGENCE, Rate 125 g/ha): 20
Plant response rating, Dallisgrass (dallisgrass; PREEMERGENCE, Rate 250 g/ha): 20
Plant response rating, Goosegrass (goosegrass; POSTEMERGENCE, Rate 125 g/ha): 0
Plant response rating, Goosegrass (goosegrass; POSTEMERGENCE, Rate 250 g/ha): 0
Plant response rating, Goosegrass (goosegrass; PREEMERGENCE, Rate 125 g/ha): 70
Plant response rating, Goosegrass (goosegrass; PREEMERGENCE, Rate 250 g/ha): 20
Plant response rating, Guineagrass (guineagrass; POSTEMERGENCE, Rate 125 g/ha): 0
Plant response rating, Guineagrass (guineagrass; POSTEMERGENCE, Rate 250 g/ha): 0
Plant response rating, Guineagrass (guineagrass; PREEMERGENCE, Rate 125 g/ha): 0
Plant response rating, Guineagrass (guineagrass; PREEMERGENCE, Rate 250 g/ha): 30
Plant response rating, Itchgrass (itchgrass; POSTEMERGENCE, Rate 125 g/ha): 0
Plant response rating, Itchgrass (itchgrass; POSTEMERGENCE, Rate 250 g/ha): 0
Plant response rating, Itchgrass (itchgrass; PREEMERGENCE, Rate 125 g/ha): 0
Plant response rating, Itchgrass (itchgrass; PREEMERGENCE, Rate 250 g/ha): 50
Plant response rating, Johnsongrass (johnsongrass; POSTEMERGENCE, Rate 125 g/ha): 0
Plant response rating, Johnsongrass (johnsongrass; POSTEMERGENCE, Rate 250 g/ha): 0
Plant response rating, Johnsongrass (johnsongrass; PREEMERGENCE, Rate 125 g/ha): 0
Plant response rating, Johnsongrass (johnsongrass; PREEMERGENCE, Rate 250 g/ha): 0
Plant response rating, Large Crabgrass (large crabgrass; POSTEMERGENCE, Rate 125 g/ha): 0
Plant response rating, Large Crabgrass (large crabgrass; POSTEMERGENCE, Rate 250 g/ha): 0
Plant response rating, Large Crabgrass (large crabgrass; PREEMERGENCE, Rate 125 g/ha): 90
Plant response rating, Large Crabgrass (large crabgrass; PREEMERGENCE, Rate 250 g/ha): 90
Plant response rating, Pit Morninglory (pitted morningglory; POSTEMERGENCE, Rate 125 g/ha): 0
Plant response rating, Pit Morninglory (pitted morningglory; POSTEMERGENCE, Rate 250 g/ha): 40
Plant response rating, Pit Morninglory (pitted morningglory; PREEMERGENCE, Rate 125 g/ha): 0
Plant response rating, Pit Morninglory (pitted morningglory; PREEMERGENCE, Rate 250 g/ha): 20
Plant response rating, Purple Nutsedge (purple nutsedge; POSTEMERGENCE): 0
Plant response rating, Purple Nutsedge (purple nutsedge; PREEMERGENCE): 0
Plant response rating, S. Sandbur (sandbur; POSTEMERGENCE, Rate 125 g/ha): 0
Plant response rating, S. Sandbur (sandbur; POSTEMERGENCE, Rate 250 g/ha): 0
Plant response rating, S. Sandbur (sandbur; PREEMERGENCE, Rate 125 g/ha): 0
Plant response rating, S. Sandbur (sandbur; PREEMERGENCE, Rate 250 g/ha): 0
Plant response rating, Smooth Crabgras (smooth crabgrass; POSTEMERGENCE, Rate 125 g/ha): 0
Plant response rating, Smooth Crabgras (smooth crabgrass; POSTEMERGENCE, Rate 250 g/ha): 0
Plant response rating, Smooth Crabgras (smooth crabgrass; PREEMERGENCE, Rate 125 g/ha): 0
Plant response rating, Smooth Crabgras (smooth crabgrass; PREEMERGENCE, Rate 250 g/ha): 40

Reference: patent US6358885B1, “Substituted phenylheterocyclic herbicides” (Mississippi State University, priority 1992, dated 2002)
